Reference: EP0148075A2, “Anti-PGE specific monoclonal antibodies, their preparation and their biological applications” (INSTITUT PASTEUR, priority 1983, dated 1985)

Key:
Assay type in all cases: binding, souris
[1] = system: anticorps monoclonal anti-PG E2 secrété par les hybridomes 42-61-48 (CNCM 1-255), type IgG Cb Kapa; test: competition radioimmunoassay (affinity by Scatchard plot, specificity by displacement of tritiated PG E2); conditions: 12 h at 4°C; for quantité qu'il faut pour déplacer 2,5 pg de PG E2 tritiée liée à l'anticorps: competition with tritiated PG E2
Procedure: (§1) 'L'affinité des anticorps est étudiée en effectuant un essai radio-immunologique dit de compétition; on détermine l'importance relative de la fixation de PG E marquée au tritium et non marquée sur les anticorps monoclonaux à étudier pour des mélanges de ces PG E en quantités données; Pour cela, on fait incuber 12 heures à 4°C des quantités croissantes de PG E non marquée avec une dilution du surnageant de chaque puits dans lequel se développent des clones secréteurs, en présence de 10 pg de la même PG E mais tritiée; on calcule la dilution pour que 50% de la PG E tritiée se fixe sur les anticorps présents; les résultats obtenus sont représentés selon une courbe de Scatchard, d'où l'on déduit, de façon connue, la constante d'association de l'anticorps monoclonal à la PG E qui traduit l'affinité des anticorps pour leur antigène. La méthode de calcul de la constante d'association est décrite notamment dans Ann. N.Y. Acad. Sci.5l, p.660-672 (1949).
(§2) La spécificité des anticorps est étudiée en effectuant le même type d'essai radioimmunologique de compétition lors de la fixation sur l'anticorps monoclonal anti-PG E à étudier, mais la compétition a lieu entre la PG E tritiée correspondant à l'anticorps préparé et d'autres prostaglandines.
(§3) On mesure l'affinité et la spécificité des anti-corps secrétés dans le surnageant, par les méthodes radio-immunologiques de compétition de liaison précédemment décrites.

[2] = system: anticorps monoclonal anti-PG E2 secrété par les hybridomes 8E57 (CNCM 1-254); test: as above; conditions: 12 h at 4°C; for quantité qu'il faut pour déplacer 2,5 pg de PG E2 tritiée de sa liaison à l'anticorps: competition with tritiated PG E2
Procedure: as §1, §2, §3

[3] = target: anticorps monoclonal anti-PG E1 de la lignée d'hybridomes 36-F-20 (36F20, CNCM I-403), type IgG 1 Kapa; test: competition radioimmunoassay (affinity, Scatchard plot); conditions: association constant for PG E1; 720 min; read-out: constante d'affinité (converted)
Procedure: as §1

[4] = target: anticorps monoclonal anti-PG E2 de la souche 38-200.10 (CNCM I-401), type IgGl Kapa; test: as above; conditions: association constant for PG E2; 720 min; read-out: constante d'affinité (converted)
Procedure: as §1, §3

[5] = target: anticorps monoclonal anti-PG E2 de la souche 42-61-48.46 (CNCM I-402); test: as above; conditions: association constant for PG E2; 720 min; read-out: constante d'affinité (converted)
Procedure: as §1, §3

[6] = association constant for PG E2, 10 pg tritiated PG E2

| Compound | quantité qu'il faut pour déplacer 2,5 pg de PG E2 tritiée liée à l'anticorps [1] | quantité qu'il faut pour déplacer 2,5 pg de PG E2 tritiée de sa liaison à l'anticorps [2] | Kd [3] | constante d'affinité Ka [1, 6] | constante d'affinité Ka [2, 6] | Kd [4] | Kd [5] |
| --- | --- | --- | --- | --- | --- | --- | --- |
| CCCCC[C@H](O)/C=C/[C@H]1[C@H](O)CC(=O)[C@@H]1CC(=O)CCCCC(=O)O [6-céto-PG E1] | 1000 pg | 350 pg |  |  |  |  |  |
| CCCCC[C@H](O)/C=C/C1=C(C/C=C\CCCC(=O)O)C(=O)CC1 [PG B2] | 500 000 pg | > 10 000 pg |  |  |  |  |  |
| CCCCC[C@H](O)/C=C/[C@H]1C=CC(=O)[C@@H]1C/C=C\CCCC(=O)O [PG A2] | 50 000 pg | > 500 pg |  |  |  |  |  |

Second part, the molecule after the results:

| quantité qu'il faut pour déplacer 2,5 pg de PG E2 tritiée liée à l'anticorps [1] | quantité qu'il faut pour déplacer 2,5 pg de PG E2 tritiée de sa liaison à l'anticorps [2] | Kd [3] | constante d'affinité Ka [1, 6] | constante d'affinité Ka [2, 6] | Kd [4] | Kd [5] | Compound |
| --- | --- | --- | --- | --- | --- | --- | --- |
| 350 pg | 70 pg | 0.05 nM |  |  |  |  | CCCCC[C@H](O)/C=C/[C@H]1[C@H](O)CC(=O)[C@@H]1CCCCCCC(=O)O [PG E1] |
| 80 pg | 40 pg |  | 5e+09 M⁻¹ | 10^10 M^-1 | 0.11 nM | 0.222 nM | CCCCC[C@H](O)/C=C/[C@H]1[C@H](O)CC(=O)[C@@H]1C/C=C\CCCC(=O)O [PG E2] |
| 40 000 pg |  |  |  |  |  |  | CCCCC[C@H](O)/C=C/[C@@H]1[C@@H](CCCCCCC(=O)O)[C@@H](O)C[C@H]1O [PG Flalpha] |
